According to patent US7704995B2 (Exelixis, Inc., priority 2003, dated 2010):
Where two headings read alike, the source gives them in different places.

Target: T1, Chk1 (Homo sapiens, UniProt O14757)
T1 construct: purchased Upstate Biotechnology
T1 sequence (O14757 1-476): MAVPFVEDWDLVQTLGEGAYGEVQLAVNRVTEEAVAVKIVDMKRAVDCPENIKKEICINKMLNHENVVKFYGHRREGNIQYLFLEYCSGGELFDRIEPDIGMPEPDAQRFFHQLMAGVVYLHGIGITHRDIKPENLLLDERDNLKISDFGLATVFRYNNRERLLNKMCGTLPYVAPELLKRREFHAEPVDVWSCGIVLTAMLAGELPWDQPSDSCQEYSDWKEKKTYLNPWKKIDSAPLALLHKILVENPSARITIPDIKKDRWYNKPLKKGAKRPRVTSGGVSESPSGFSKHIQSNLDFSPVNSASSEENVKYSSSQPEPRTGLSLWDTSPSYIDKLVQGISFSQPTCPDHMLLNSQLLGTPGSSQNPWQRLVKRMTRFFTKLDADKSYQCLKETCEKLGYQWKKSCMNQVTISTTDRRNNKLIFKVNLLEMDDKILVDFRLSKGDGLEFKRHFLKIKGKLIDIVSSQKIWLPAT
Test: Chk1 kinase assay: incorporation of γ-33P ATP into immobilized myelin basic protein
Assay type: biochemical
Settings: read-out: Chk1 IC50
Procedure: Chk1 and Chk2 assays were performed by measuring incorporation of γ-^33P ATP into immobilized myelin basic protein (MBP). High binding white 384 well plates (Greiner) were coated with MBP (Sigma #M-1891) by incubation of 60 ul/well of 20 μg/ml MBP in Tris-buffered saline (TBS; 50 mM Tris pH 8.0, 138 mM NaCl, 2.7 mM KCl) for 24 hours at 4° C. Plates were washed 3× with 100 μl TBS. Kinase reactions were carried out in a total volume of 34 μl in kinase buffer (5 mM Hepes pH 7.6, 15 mM NaCl, 0.01% bovine gamma globulin (Sigma #I-5506), 10 mM MgCl2, 1 mM DTT, 0.02% TritonX-100). Compound dilutions were performed in DMSO and added to assay wells to a final DMSO concentration of 1%. Each data point was measured in duplicate, and at least two duplicate assays were performed for each individual compound determination. Chk1 and Chk2 enzymes (Upstate Biotechnology) were added to final concentrations of 10 nM (Chk1) or 20 nM (Chk2). A mixture of unlabeled ATP and γ-^33P ATP was added to start the reaction (2×10^6 cpm of γ-^33P ATP per well (3000 Ci/mmole) and either 10 μM or 30 μM unlabeled ATP (for Chk1 and Chk2 assays respectively). The reaction was carried out for 1 hour at room temperature with shaking. Plates were washed 7× with TBS, followed by the addition of 50 μl/well scintillation fluid (Wallac). Plates were read using a Wallac Trilux counter. This is only one format of such assays, various other formats are possible, as known to those skilled in the art.
The above assay procedure can be used to determine the IC50 for inhibition and/or the inhibition constant Ki. The IC50 is defined as the concentration of compound required to reduce the enzyme activity by 50% under the conditions of the assay. […] The Ki for a compound may be determined from the IC50 based on three assumptions. First, only one compound molecule binds to the enzyme and there is no cooperativity. […] Third, the enzymatic rate of the enzyme-inhibitor complex is zero. The rate (i.e., compound concentration) data are fitted to the equation: […]

[1] = Table 11, Chk1 only, class symbols A-D

| IC50 (Table 11, Chk1 only) | IC50 | SMILES | also measured |
| --- | --- | --- | --- |
| < 0.05 µM | – | Nc1ncc(-c2cccc(CN[C@H]3CCc4ccccc43)c2)nc1-c1nc([C@H]2CCCNC2)n[nH]1 [Example 704, 5-(3-{[(1S)-2,3-dihydro-1H-inden-1-ylamino]methyl}phenyl)-3-{3-[(3S)-piperidin-3-yl]-1H-1,2,4-triazol-5-yl}pyrazin-2-amine] | – |
| ≥ 10 µM | – | N=C(NNc1ccccn1)c1nc(-c2cccc(C(=O)NCc3ccccc3)c2)cnc1N [Example 693, 3-{5-amino-6-[imino(2-pyridin-2-ylhydrazino)methyl]pyrazin-2-yl}-N-(phenylmethyl)benzamide] | – |
| 0.05 to 1 µM | – | CNC(=O)c1nc(-c2cccc(CN[C@@H]3CCc4cc(Br)ccc4C3)c2)cnc1N [Example 463, 3-amino-6-[3-({[(2R)-6-bromo-1,2,3,4-tetrahydronaphthalen-2-yl]amino}methyl)phenyl]-N-methylpyrazine-2-carboxamide] | – |
| – | 0.05 to 1 µM | CNC(=O)c1nc(-c2ccc(Cl)c(C(=O)NCc3ccccc3)c2)cnc1N [Example 240, 3-amino-6-(4-chloro-3-{[(phenylmethyl)amino]carbonyl}phenyl)-N-methylpyrazine-2-carboxamide] | – |
| ≥ 10 µM | – | COc1cccc(-c2nnc(-c3nc(-c4cccc(CO)c4)cnc3N)[nH]2)c1 [Example 571, [3-(5-amino-6-{5-[3-(methyloxy)phenyl]-4H-1,2,4-triazol-3-yl}pyrazin-2-yl)phenyl]methanol] | – |
| – | 0.05 to 1 µM | CNC(=O)c1nc(-c2cccc(C(=O)NCc3ccc(Cl)cc3)c2)cnc1N [Example 98, 3-amino-6-[3-({[(4-chlorophenyl)methyl]amino}carbonyl)phenyl]-N-methylpyrazine-2-carboxamide] | – |
| – | 1 to 10 µM | CNC(=O)c1nc(-c2cccc(C(=O)N[C@H](C)c3ccccc3)c2)cnc1N [Example 144, 3-amino-N-methyl-6-[3-({[(1R)-1-phenylethyl]amino}carbonyl)phenyl]pyrazine-2-carboxamide] | – |
| 0.05 to 1 µM | – | Nc1ncc(-c2cccc(C(=O)NC3CCOc4ccccc43)c2)nc1C(=O)N[C@H]1CCNC1 (stereo partly drawn) [Example 778, 3-amino-6-{3-[(3,4-dihydro-2H-chromen-4-ylamino)carbonyl]phenyl}-N-[(3S)-pyrrolidin-3-yl]pyrazine-2-carboxamide] | – |
| 0.05 to 1 µM | – | C/C(=N\NCCO)c1nc(-c2cccc(C(=O)NCc3ccccc3)c2)cnc1N [Example 605, 3-{5-amino-6-[(1E)-N-(2-hydroxyethyl)ethanehydrazonoyl]pyrazin-2-yl}-N-(phenylmethyl)benzamide] | – |
| – | – | COc1ccc(NC(=O)NCc2cccc(-c3cnc(N)c(C(=O)N[C@H]4CCCNC4)n3)c2)cc1 [Example 957, 3-amino-6-(3-{[({[4-(methyloxy)phenyl]amino}carbonyl)amino]methyl}phenyl)-N-[(3S)-piperidin-3-yl]pyrazine-2-carboxamide] | IC50 [1]: < 0.05 µM |
| – | – | Nc1ncc(-c2cccc(C(=O)NCc3ccc(F)c(F)c3)c2)nc1C(=O)N[C@H]1CCCCNC1 [Example 1008, 3-amino-N-[(3S)-azepan-3-yl]-6-[3-({[(3,4-difluorophenyl)methyl]amino}carbonyl)phenyl]pyrazine-2-carboxamide] | IC50 [1]: < 0.05 µM |
| – | – | Nc1ncc(-c2cccc(C(=O)NCc3cc(Cl)ccc3F)c2)nc1C(=O)N[C@H]1CCCNC1 [Example 862, 3-amino-6-[3-({[(5-chloro-2-fluorophenyl)methyl]amino}carbonyl)phenyl]-N-[(3S)-piperidin-3-yl]pyrazine-2-carboxamide] | IC50 [1]: < 0.05 µM |
| – | 0.05 to 1 µM | CNC(=O)c1nc(-c2cccc(C(=O)NCC3CCCN3)c2)cnc1N (stereo not shown) [Example 367, 3-amino-N-methyl-6-(3-{[(pyrrolidin-2-ylmethyl)amino]carbonyl}phenyl)pyrazine-2-carboxamide] | – |
| 0.05 to 1 µM | – | CNC(=O)c1nc(-c2cccc(CN[C@@H](CO)c3ccccc3)c2)cnc1N [Example 428, 3-amino-6-[3-({[(1R)-2-hydroxy-1-phenylethyl]amino}methyl)phenyl]-N-methylpyrazine-2-carboxamide] | – |
| 0.05 to 1 µM | – | CNC(=O)c1nc(-c2cccc(CNC3CCc4ccc(Br)cc43)c2)cnc1N (stereo not shown) [Example 501, 3-amino-6-(3-{[(6-bromo-2,3-dihydro-1H-inden-1-yl)amino]methyl}phenyl)-N-methylpyrazine-2-carboxamide] | – |
| – | 1 to 10 µM | CNC(=O)c1nc(-c2cccc(C(=O)NCc3cccc(N4CCOCC4)c3)c2)cnc1N [Example 344, 3-amino-N-methyl-6-[3-({[(3-morpholin-4-ylphenyl)methyl]amino}carbonyl)phenyl]pyrazine-2-carboxamide] | – |
| – | – | Nc1ncc(-c2cccc(NC(=O)c3ccc(-c4cc(C(F)(F)F)ccc4Cl)o3)c2)nc1C(=O)N[C@H]1CCCNC1 [Example 899, 3-amino-6-{3-[({5-[2-chloro-5-(trifluoromethyl)phenyl]furan-2-yl}carbonyl)amino]phenyl}-N-[(3S)-piperidin-3-yl]pyrazine-2-carboxamide] | IC50 [1]: < 0.05 µM |
| – | 0.05 to 1 µM | CNC(=O)c1nc(-c2cccc(NC(=O)c3ccc(Cl)cc3)c2)cnc1N [Example 111, 3-amino-6-(3-{[(4-chlorophenyl)carbonyl]amino}phenyl)-N-methylpyrazine-2-carboxamide] | – |
| ≥ 10 µM | – | Nc1ncc(-c2cccc(CO)c2)nc1-c1nc(-c2ccc(Cl)cc2)n[nH]1 [Example 581, (3-{5-amino-6-[3-(4-chlorophenyl)-1H-1,2,4-triazol-5-yl]pyrazin-2-yl}phenyl)methanol] | – |
| – | 0.05 to 1 µM | CNC(=O)c1nc(-c2cccc(C(=O)NCc3ccccc3C(F)(F)F)c2)cnc1N [Example 109, 3-amino-N-methyl-6-{3-[({[2-(trifluoromethyl)phenyl]methyl}amino)carbonyl]phenyl}pyrazine-2-carboxamide] | – |
| – | – | CN1CCN(c2ccc(CNC(=O)c3cccc(-c4cnc(N)c(C(=O)N[C@H]5CCCNC5)n4)c3)cc2)CC1 [Example 924, 3-amino-6-{3-[({[4-(4-methylpiperazin-1-yl)phenyl]methyl}amino)carbonyl]phenyl}-N-[(3S)-piperidin-3-yl]pyrazine-2-carboxamide] | IC50 [1]: < 0.05 µM |
| 0.05 to 1 µM | – | NNC(=O)c1nc(-c2cccc(CN[C@H]3CCc4ccccc43)c2)cnc1N [Example 529, 3-amino-6-(3-{[(1S)-2,3-dihydro-1H-inden-1-ylamino]methyl}phenyl)pyrazine-2-carbohydrazide] | – |
| – | 0.05 to 1 µM | CNC(=O)c1nc(-c2cccc(C(=O)NCc3c(N)cccc3F)c2)cnc1N [Example 381, 3-amino-6-[3-({[(2-amino-6-fluorophenyl)methyl]amino}carbonyl)phenyl]-N-methylpyrazine-2-carboxamide] | – |
| – | – | Cc1cc(C(=O)NCc2cccc(-c3cnc(N)c(C(=O)N[C@H]4CCCNC4)n3)c2)no1 [Example 989, 3-amino-6-[3-({[(5-methylisoxazol-3-yl)carbonyl]amino}methyl)phenyl]-N-[(3S)-piperidin-3-yl]pyrazine-2-carboxamide] | IC50 [1]: < 0.05 µM |
| 1 to 10 µM | – | Nc1ncc(-c2cccc(C(=O)NCc3ccccc3)c2)nc1C(=O)NCCNC(=O)c1cccnc1Cl [Example 664, 3-amino-N-(2-{[(2-chloropyridin-3-yl)carbonyl]amino}ethyl)-6-(3-{[(phenylmethyl)amino]carbonyl}phenyl)pyrazine-2-carboxamide] | – |
| 1 to 10 µM | – | CCNNC(=N)c1nc(-c2cccc(C(=O)NC3CCc4ccccc43)c2)cnc1N (stereo not shown) [Example 718, 3-{5-amino-6-[(2-ethylhydrazino)(imino)methyl]pyrazin-2-yl}-N-(2,3-dihydro-1H-inden-1-yl)benzamide] | – |
| 0.05 to 1 µM | – | CNC(=O)c1cc(-c2cccc(CNC3CCc4cc(F)cc(F)c43)c2)cnc1N (stereo not shown) [Example 524, 2-amino-5-(3-{[(5,7-difluoro-2,3-dihydro-1H-inden-1-yl)amino]methyl}phenyl)-N-methylpyridine-3-carboxamide] | – |
| – | < 0.05 µM | CNC(=O)c1nc(-c2cccc(CN[C@@H]3c4ccccc4C[C@@H]3O)c2)cnc1N [Example 421, 3-amino-6-[3-({[(1R,2S)-2-hydroxy-2,3-dihydro-1H-inden-1-yl]amino}methyl)phenyl]-N-methylpyrazine-2-carboxamide] | – |
